Assay [1] deals with T1, Apoptotic protease-activating factor 1 (Homo sapiens, UniProt O14727).
T1 sequence (O14727 whole entry): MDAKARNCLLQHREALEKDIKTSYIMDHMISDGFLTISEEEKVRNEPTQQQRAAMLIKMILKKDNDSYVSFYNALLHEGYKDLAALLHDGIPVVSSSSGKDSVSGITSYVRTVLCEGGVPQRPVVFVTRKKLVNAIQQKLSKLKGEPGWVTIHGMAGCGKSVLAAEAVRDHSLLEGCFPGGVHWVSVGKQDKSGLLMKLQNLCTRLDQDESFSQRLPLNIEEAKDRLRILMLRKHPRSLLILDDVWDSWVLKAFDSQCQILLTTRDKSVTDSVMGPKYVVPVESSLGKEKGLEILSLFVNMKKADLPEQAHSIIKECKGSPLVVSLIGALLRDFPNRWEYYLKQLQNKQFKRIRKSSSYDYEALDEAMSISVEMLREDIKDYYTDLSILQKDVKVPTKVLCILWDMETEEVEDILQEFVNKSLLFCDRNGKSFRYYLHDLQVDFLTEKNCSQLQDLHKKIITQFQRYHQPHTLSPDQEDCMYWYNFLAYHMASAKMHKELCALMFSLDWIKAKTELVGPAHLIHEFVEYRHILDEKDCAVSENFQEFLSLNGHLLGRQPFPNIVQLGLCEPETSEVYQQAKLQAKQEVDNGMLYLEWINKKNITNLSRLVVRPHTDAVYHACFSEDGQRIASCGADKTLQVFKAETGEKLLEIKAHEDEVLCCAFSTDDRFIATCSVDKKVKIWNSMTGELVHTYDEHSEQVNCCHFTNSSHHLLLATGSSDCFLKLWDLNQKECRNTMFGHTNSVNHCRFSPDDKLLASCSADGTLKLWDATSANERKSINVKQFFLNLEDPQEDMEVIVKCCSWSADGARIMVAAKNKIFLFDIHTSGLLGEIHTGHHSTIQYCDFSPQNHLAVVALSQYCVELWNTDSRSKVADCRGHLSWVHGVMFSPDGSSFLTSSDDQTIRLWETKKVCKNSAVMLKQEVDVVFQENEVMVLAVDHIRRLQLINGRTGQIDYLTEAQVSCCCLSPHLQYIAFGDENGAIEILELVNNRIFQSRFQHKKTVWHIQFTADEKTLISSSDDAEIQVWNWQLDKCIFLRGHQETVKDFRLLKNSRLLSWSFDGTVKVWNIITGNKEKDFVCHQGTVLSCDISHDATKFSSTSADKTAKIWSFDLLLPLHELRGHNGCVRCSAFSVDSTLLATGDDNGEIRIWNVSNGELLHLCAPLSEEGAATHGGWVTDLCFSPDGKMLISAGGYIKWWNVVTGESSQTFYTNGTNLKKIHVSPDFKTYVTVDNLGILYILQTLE
The assay is described as follows: SAR analysis of small molecule inhibitors of Apaf-1 in a Fluorescent assay. It is filed as functional. The note with it: read-out: IC50_Mean.

Assay [2] has as its target T2, Sentrin-specific protease 8 (Homo sapiens, UniProt Q96LD8).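 Further: kinetic enzyme assay of SENP8 cleaving a Nedd8 protein substrate, dose-response confirmation of screening hits.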
T2 sequence (Q96LD8 whole entry): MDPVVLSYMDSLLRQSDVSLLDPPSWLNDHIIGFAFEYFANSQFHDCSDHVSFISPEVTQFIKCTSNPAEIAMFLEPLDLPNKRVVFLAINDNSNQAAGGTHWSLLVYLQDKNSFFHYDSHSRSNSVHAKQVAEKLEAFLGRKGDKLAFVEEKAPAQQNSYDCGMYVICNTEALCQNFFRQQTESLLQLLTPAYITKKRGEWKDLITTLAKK
It is filed as functional.

Assay [3] addresses T3, Mannose-6-phosphate isomerase (Homo sapiens, UniProt P34949).
T3 sequence (P34949 whole entry): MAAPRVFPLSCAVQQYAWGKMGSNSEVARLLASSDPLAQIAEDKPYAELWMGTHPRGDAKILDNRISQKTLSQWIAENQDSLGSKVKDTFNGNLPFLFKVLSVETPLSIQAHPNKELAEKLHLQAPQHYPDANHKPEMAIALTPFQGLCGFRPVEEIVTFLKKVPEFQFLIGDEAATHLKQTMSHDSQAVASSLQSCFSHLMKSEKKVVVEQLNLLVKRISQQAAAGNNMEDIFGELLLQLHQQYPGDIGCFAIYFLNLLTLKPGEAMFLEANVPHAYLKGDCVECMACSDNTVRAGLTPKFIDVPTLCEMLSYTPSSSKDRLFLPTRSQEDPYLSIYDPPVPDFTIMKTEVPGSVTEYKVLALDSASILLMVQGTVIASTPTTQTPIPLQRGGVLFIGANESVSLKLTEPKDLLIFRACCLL
The assay is described as follows: MPI enzyme activity inhibition – biochemical, fluorescence intensity, coupled assay, primary screen (AID 1209).

Assay [4] addresses Sphingosine 1-phosphate receptor 1 (Homo sapiens, UniProt P21453). In kind it is functional.
The nature of assay [5]: blockers of HIV-1 envelope-mediated cell-cell fusion – cherry-pick, dose response (AID 652057). It is filed as functional, cell-based.
Assay [6] concerns the target T4, Cysteine protease ATG4B (Homo sapiens, UniProt Q9Y4P1).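 Further: Fluorescence-based dose-response confirmation assay measuring inhibition of ATG4B activity.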
T4 sequence (Q9Y4P1 whole entry): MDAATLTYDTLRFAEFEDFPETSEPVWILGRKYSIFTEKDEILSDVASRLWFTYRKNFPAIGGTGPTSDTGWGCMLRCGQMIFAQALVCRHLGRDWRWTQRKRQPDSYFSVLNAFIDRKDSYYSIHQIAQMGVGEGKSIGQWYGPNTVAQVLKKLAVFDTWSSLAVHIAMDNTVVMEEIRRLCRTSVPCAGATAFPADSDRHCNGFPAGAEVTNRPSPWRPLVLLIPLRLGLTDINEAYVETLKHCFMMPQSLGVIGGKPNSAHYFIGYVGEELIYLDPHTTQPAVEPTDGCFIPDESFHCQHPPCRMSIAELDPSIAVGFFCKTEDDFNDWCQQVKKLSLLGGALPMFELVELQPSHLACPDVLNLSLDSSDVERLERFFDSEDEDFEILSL
In kind it is functional.

Assay [7] addresses Protein-arginine deiminase type-4 (Homo sapiens, UniProt Q9UM07). Description: IC50 against protein arginine deiminase 4 – biochemical, fluorescence readout, dose response (AID 492970).
For assay [8], the target named is T5, Sphingosine 1-phosphate receptor 4 (Homo sapiens, UniProt O95977).
T5 sequence (O95977 whole entry): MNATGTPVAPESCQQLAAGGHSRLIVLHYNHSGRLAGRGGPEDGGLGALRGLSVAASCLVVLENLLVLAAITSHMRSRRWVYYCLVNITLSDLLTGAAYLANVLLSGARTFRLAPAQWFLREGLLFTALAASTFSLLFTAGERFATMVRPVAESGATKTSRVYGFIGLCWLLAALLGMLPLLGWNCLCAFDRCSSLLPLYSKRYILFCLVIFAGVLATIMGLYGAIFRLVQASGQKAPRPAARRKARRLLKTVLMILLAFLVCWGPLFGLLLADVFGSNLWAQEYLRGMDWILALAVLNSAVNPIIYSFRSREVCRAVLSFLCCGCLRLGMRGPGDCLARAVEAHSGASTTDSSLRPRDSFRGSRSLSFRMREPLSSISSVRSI
Description: Fluorescence dose response cell-based high throughput screening assay for antagonists of the Sphingosine 1-Phosphate Receptor 4 (S1P4). [Related pubchem assays: 1524 (Confirmation in triplicates.), 1510 (Primary screen.)]. It is filed as functional.

The values below come from ChEMBL document CHEMBL1201862, “PubChem BioAssay data set” (2004).

Structures are written as SMILES. Calls of active or inactive are those of the source.

Protein-arginine deiminase type-4, sequence (Q9UM07 whole entry): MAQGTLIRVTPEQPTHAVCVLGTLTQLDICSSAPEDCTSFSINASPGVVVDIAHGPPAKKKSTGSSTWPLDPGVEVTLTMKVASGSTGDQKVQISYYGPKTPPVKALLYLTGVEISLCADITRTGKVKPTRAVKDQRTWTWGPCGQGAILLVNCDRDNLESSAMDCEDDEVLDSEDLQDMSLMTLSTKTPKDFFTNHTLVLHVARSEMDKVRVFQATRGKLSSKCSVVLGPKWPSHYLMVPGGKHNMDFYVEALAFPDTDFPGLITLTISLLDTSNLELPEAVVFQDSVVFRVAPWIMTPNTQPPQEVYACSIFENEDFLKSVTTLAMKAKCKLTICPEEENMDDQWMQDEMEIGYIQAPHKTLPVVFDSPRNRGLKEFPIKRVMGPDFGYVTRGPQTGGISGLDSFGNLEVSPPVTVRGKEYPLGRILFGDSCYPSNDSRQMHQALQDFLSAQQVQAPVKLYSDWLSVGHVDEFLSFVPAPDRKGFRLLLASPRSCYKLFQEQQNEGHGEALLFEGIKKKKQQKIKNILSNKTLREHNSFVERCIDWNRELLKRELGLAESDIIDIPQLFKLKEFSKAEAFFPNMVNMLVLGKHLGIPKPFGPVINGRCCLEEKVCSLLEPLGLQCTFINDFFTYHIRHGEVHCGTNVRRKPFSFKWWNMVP
Sphingosine 1-phosphate receptor 1, sequence (P21453 whole entry, the tested form may be a part): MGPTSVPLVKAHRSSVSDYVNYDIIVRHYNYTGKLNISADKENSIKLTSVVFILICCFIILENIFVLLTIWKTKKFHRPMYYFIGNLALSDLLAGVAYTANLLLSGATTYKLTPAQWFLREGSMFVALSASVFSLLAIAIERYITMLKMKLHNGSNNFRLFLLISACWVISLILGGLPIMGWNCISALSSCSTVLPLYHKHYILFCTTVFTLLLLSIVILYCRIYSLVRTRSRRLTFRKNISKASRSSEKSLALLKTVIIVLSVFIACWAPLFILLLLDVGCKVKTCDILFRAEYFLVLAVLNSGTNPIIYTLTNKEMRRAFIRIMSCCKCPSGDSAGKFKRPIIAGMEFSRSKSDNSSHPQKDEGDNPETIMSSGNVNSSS

As for `O=C1c2cc(F)ccc2-n2c1nc1ccccc1c2=O`, the IC50 was 67.7 µM (active) in assay [1] and 0.985 µM (active) in assay [2].

`CCOC(=O)C1=C(c2ccc(OC)cc2)C(=O)c2ccccc2C1=O`: in assay [3], the IC50 is 42.4 µM (active).

Regarding `O=C1C(=O)c2ccccc2-c2ccccc21` [9,10-PHENANTHRENEQUINONE], the IC50 in assay [4] was 5.02 µM (active); in assay [6], 1.25 µM (active); in assay [7], 16 µM (inactive); in assay [8], 2.03 µM (active). The AC50 (as a rule, the concentration at which the activity in the assay is half-maximal) in assay [5] is 4.53 µM (active).
